Assay results taken from ChEMBL document CHEMBL5247627, “1-Methyl-3-((4-(quinolin-4-yloxy)phenyl)amino)-1H-pyrazole-4-carboxamide derivatives as new rearranged during Transfection (RET) kinase inhibitors capable of suppressing resistant mutants in solvent-front regions” (Eur J Med Chem, 2022).
Activity calls are given as the source filed them. The rule behind the calls is not given here.

Assays:
[1] = tested on: BaF3; settings: Mus musculus, CB17-SCID, Tumor/tissue, dose 10-30 mg/kg, route ip, time 13.0 day
[2] = tested on: BaF3; experiment: Induction of apoptosis in mouse BaF3 cells harbouring CCDC6-RET G810R assessed as viable cells measured at 100 nM for 48 hrs by Annexin V-FITC staining based Guava easyCyte flow cytometric analysis (reference value: 89.5 %); format: functional; settings: read-out: Activity
[3] = tested on: BaF3; experiment: Antiproliferative activity against mouse BaF3 cells expressing rearranged during transfection kinase V804L-G810R incubated for 74 to 76 hrs by cell counting kit 8 method
[4] = tested on: BaF3; experiment: Antiproliferative activity against mouse BaF3 cells expressing rearranged during transfection kinase V804M-CCDC6 incubated for 74 to 76 hrs by cell counting kit 8 method
[5] = tested on: BaF3; experiment: Induction of apoptosis in mouse BaF3 cells harbouring CCDC6-RET G810C assessed as necrotic cells measured at 33.3 nM for 48 hrs by Annexin V-FITC staining based Guava easyCyte flow cytometric analysis (reference value: 0.35 %); format: functional
[6] = tested on: BaF3; experiment: Antiproliferative activity against mouse BaF3 cells expressing rearranged during transfection kinase V804M-KIF5B incubated for 74 to 76 hrs by cell counting kit 8 method
[7] = tested on: BaF3; experiment: Induction of apoptosis in mouse BaF3 cells harbouring CCDC6-RET G810R assessed as late apoptotic cells measured at 33.3 nM for 48 hrs by Annexin V-FITC staining based Guava easyCyte flow cytometric analysis (reference value: 3.4 %); format: functional
[8] = tested on: BaF3; experiment: Induction of apoptosis in mouse BaF3 cells harbouring CCDC6-RET G810C assessed as late apoptotic cells measured at 100 nM for 48 hrs by Annexin V-FITC staining based Guava easyCyte flow cytometric analysis (reference value: 2.65 %); format: functional
[9] = tested on: BaF3; experiment: Antiproliferative activity against mouse BaF3 cells expressing wildtype rearranged during transfection kinase-KIF5B incubated for 74 to 76 hrs by cell counting kit 8 method
[10] = tested on: BaF3; experiment: Induction of apoptosis in mouse BaF3 cells harbouring CCDC6-RET G810C assessed as late apoptotic cells measured at 300 nM for 48 hrs by Annexin V-FITC staining based Guava easyCyte flow cytometric analysis (reference value: 2.65 %); format: functional
[11] = tested on: BaF3; experiment: Antiproliferative activity against mouse BaF3 cells expressing wildtype rearranged during transfection kinase-CCDC6 incubated for 74 to 76 hrs by cell counting kit 8 method
[12] = tested on: BaF3; experiment: Induction of apoptosis in mouse BaF3 cells harbouring CCDC6-RET G810C assessed as late apoptotic cells measured at 33.3 nM for 48 hrs by Annexin V-FITC staining based Guava easyCyte flow cytometric analysis (reference value: 2.65 %); format: functional
[13] = tested on: BaF3; experiment: Antiproliferative activity against mouse BaF3 cells expressing rearranged during transfection kinase V804L-KIF5B incubated for 74 to 76 hrs by cell counting kit 8 method
[14] = tested on: BaF3; experiment: Induction of apoptosis in mouse BaF3 cells harbouring CCDC6-RET G810R assessed as necrotic cells measured at 100 nM for 48 hrs by Annexin V-FITC staining based Guava easyCyte flow cytometric analysis (reference value: 0.64 %); format: functional
[15] = tested on: BaF3; experiment: Induction of apoptosis in mouse BaF3 cells harbouring CCDC6-RET G810R assessed as necrotic cells measured at 33.3 nM for 48 hrs by Annexin V-FITC staining based Guava easyCyte flow cytometric analysis (reference value: 0.64 %); format: functional
[16] = tested on: BaF3; experiment: Antiproliferative activity against mouse BaF3 cells expressing rearranged during transfection kinase G810C-CCDC6 incubated for 74 to 76 hrs by cell counting kit 8 method
[17] = tested on: BaF3; experiment: Induction of apoptosis in mouse BaF3 cells harbouring CCDC6-RET G810C assessed as early apoptotic cells measured at 33.3 nM for 48 hrs by Annexin V-FITC staining based Guava easyCyte flow cytometric analysis (reference value: 6.10 %); format: functional

IC50 [3]: 120 nM | IC50 [4]: 24.4 nM | IC50 [6]: 53.1 nM | IC50 [9]: 6.1 nM | IC50 [11]: 5.6 nM | IC50 [13]: 47.3 nM | IC50 [16]: 15.4 nM
SMILES: COc1cc2nccc(Oc3ccc(Nc4nn(C)cc4C(=O)NC45CC6CC(CC(C6)C4)C5)c(F)c3)c2cc1C(N)=O
inhibition [1]: Active | viability at 0.1 µM [2]: 88.6% | Activity [5]: 0.28% | Activity [7]: 2.25% | Activity [8]: 2.39% | Activity [10]: 3.08% | Activity [12]: 1.5% | Activity [14]: 0.23% | Activity [15]: 0.17% | Activity [17]: 7.39%
